Measured values as given in PubChem BioAssay AID1963964 (Molecular Pharmacology Branch, DTP, NCI, 2024).

Test system: 997726-040-R-J2-PDC tumor spheroids, viability
Experiment: Anticancer human tumor 997726-040-R-J2-PDC patient-derived squamous cell lung carcinoma cell line growth inhibition [PI3K]
Settings: spheroids with HUVEC and MSC; for IC50: curve of first compound; for viability, T/C: stronger effect = lower value
Method in brief: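 Agents were dosed from a top concentration near clinical Cmax (otherwise 10 microM) in half-log decrements, alone or combined with PI3K inhibitors. The spheroids contain tumor cells plus endothelial (HUVEC) and MSC stroma; viability is measured.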
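Note: spheroids exposed to compounds for seven days before readout.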

CC1(C)CCC(Nc2ncc(C(F)(F)F)c(-c3c[nH]c4c(P(C)(C)=O)c(C#N)ccc34)n2)CN1 (centres undefined) + COc1c(OCCCN2CCOCC2)ccc2c3n(c(=NC(=O)c4cnc(N)nc4)nc12)CCN3
IC50 (second compound 0.00316 µM): < 31.6 nM
IC50 (second compound 0.01 µM): < 31.6 nM
IC50 (second compound 0.0316 µM): < 31.6 nM
IC50 (second compound 0.1 µM): < 31.6 nM
IC50 (second compound 0.316 µM): < 31.6 nM
IC50 (second compound 1 µM): < 31.6 nM
viability, T/C (second compound 0.00316 µM, first compound 0.0316 µM): 36.8%
viability, T/C (second compound 0.00316 µM, first compound 0.1 µM): 34.2%
viability, T/C (second compound 0.00316 µM, first compound 0.316 µM): 40.7%
viability, T/C (second compound 0.00316 µM, first compound 1 µM): 34.8%
viability, T/C (second compound 0.00316 µM, first compound 3.16 µM): 39.8%
viability, T/C (second compound 0.00316 µM, first compound 10 µM): 16.6%
viability, T/C (second compound 0.01 µM, first compound 0.0316 µM): 27%
viability, T/C (second compound 0.01 µM, first compound 0.1 µM): 28.9%
viability, T/C (second compound 0.01 µM, first compound 0.316 µM): 29.9%
viability, T/C (second compound 0.01 µM, first compound 1 µM): 30.5%
viability, T/C (second compound 0.01 µM, first compound 3.16 µM): 33.6%
viability, T/C (second compound 0.01 µM, first compound 10 µM): 12.6%
viability, T/C (second compound 0.0316 µM, first compound 0.0316 µM): 21.4%
viability, T/C (second compound 0.0316 µM, first compound 0.1 µM): 17.6%
viability, T/C (second compound 0.0316 µM, first compound 0.316 µM): 18.2%
viability, T/C (second compound 0.0316 µM, first compound 1 µM): 24.8%
viability, T/C (second compound 0.0316 µM, first compound 3.16 µM): 23.9%
viability, T/C (second compound 0.0316 µM, first compound 10 µM): 7.84%
viability, T/C (second compound 0.1 µM, first compound 0.0316 µM): 13.5%
viability, T/C (second compound 0.1 µM, first compound 0.1 µM): 12.1%
viability, T/C (second compound 0.1 µM, first compound 0.316 µM): 13.2%
viability, T/C (second compound 0.1 µM, first compound 1 µM): 13.9%
viability, T/C (second compound 0.1 µM, first compound 3.16 µM): 15%
viability, T/C (second compound 0.1 µM, first compound 10 µM): 2.98%
viability, T/C (second compound 0.316 µM, first compound 0.0316 µM): 3.97%
viability, T/C (second compound 0.316 µM, first compound 0.1 µM): 3.68%
viability, T/C (second compound 0.316 µM, first compound 0.316 µM): 3.96%
viability, T/C (second compound 0.316 µM, first compound 1 µM): 5.01%
viability, T/C (second compound 0.316 µM, first compound 3.16 µM): 4.34%
viability, T/C (second compound 0.316 µM, first compound 10 µM): 0.66%
viability, T/C (second compound 1 µM, first compound 0.0316 µM): 0.85%
viability, T/C (second compound 1 µM, first compound 0.1 µM): 0.74%
viability, T/C (second compound 1 µM, first compound 0.316 µM): 0.9%
viability, T/C (second compound 1 µM, first compound 1 µM): 0.76%
viability, T/C (second compound 1 µM, first compound 3.16 µM): 0.9%
viability, T/C (second compound 1 µM, first compound 10 µM): 0.33%

Cn1cnc2c(F)c(Nc3ccc(Br)cc3Cl)c(C(=O)NOCCO)cc21 + Cc1nc(NC(=O)N2CCCC2C(N)=O)sc1-c1ccnc(C(C)(C)C(F)(F)F)c1
IC50 (second compound 0.0316 µM): 129 nM
IC50 (second compound 0.1 µM): 66.2 nM
IC50 (second compound 0.316 µM): < 9.49 nM
IC50 (second compound 1 µM): < 9.49 nM
IC50 (second compound 3.16 µM): < 9.49 nM
IC50 (second compound 10 µM): < 9.49 nM
viability, T/C (second compound 0.0316 µM, first compound 0.00949 µM): 74.8%
viability, T/C (second compound 0.0316 µM, first compound 0.03 µM): 58.5%
viability, T/C (second compound 0.0316 µM, first compound 0.0949 µM): 53.5%
viability, T/C (second compound 0.0316 µM, first compound 0.3 µM): 41.7%
viability, T/C (second compound 0.0316 µM, first compound 0.949 µM): 45.9%
viability, T/C (second compound 0.0316 µM, first compound 3 µM): 34.1%
viability, T/C (second compound 0.1 µM, first compound 0.00949 µM): 67.6%
viability, T/C (second compound 0.1 µM, first compound 0.03 µM): 56.1%
viability, T/C (second compound 0.1 µM, first compound 0.0949 µM): 44.9%
viability, T/C (second compound 0.1 µM, first compound 0.3 µM): 40.5%
viability, T/C (second compound 0.1 µM, first compound 0.949 µM): 38.7%
viability, T/C (second compound 0.1 µM, first compound 3 µM): 28.5%
viability, T/C (second compound 0.316 µM, first compound 0.00949 µM): 51.1%
viability, T/C (second compound 0.316 µM, first compound 0.03 µM): 40.6%
viability, T/C (second compound 0.316 µM, first compound 0.0949 µM): 35.7%
viability, T/C (second compound 0.316 µM, first compound 0.3 µM): 34.3%
viability, T/C (second compound 0.316 µM, first compound 0.949 µM): 28.4%
viability, T/C (second compound 0.316 µM, first compound 3 µM): 22.2%
viability, T/C (second compound 1 µM, first compound 0.00949 µM): 36.7%
viability, T/C (second compound 1 µM, first compound 0.03 µM): 32.6%
viability, T/C (second compound 1 µM, first compound 0.0949 µM): 29.4%
viability, T/C (second compound 1 µM, first compound 0.3 µM): 25.3%
viability, T/C (second compound 1 µM, first compound 0.949 µM): 22.7%
viability, T/C (second compound 1 µM, first compound 3 µM): 21.2%
viability, T/C (second compound 3.16 µM, first compound 0.00949 µM): 24.8%
viability, T/C (second compound 3.16 µM, first compound 0.03 µM): 21.2%
viability, T/C (second compound 3.16 µM, first compound 0.0949 µM): 22.2%
viability, T/C (second compound 3.16 µM, first compound 0.3 µM): 20.9%
viability, T/C (second compound 3.16 µM, first compound 0.949 µM): 20.7%
viability, T/C (second compound 3.16 µM, first compound 3 µM): 14.3%
viability, T/C (second compound 10 µM, first compound 0.00949 µM): 17.8%
viability, T/C (second compound 10 µM, first compound 0.03 µM): 17.2%
viability, T/C (second compound 10 µM, first compound 0.0949 µM): 15.5%
viability, T/C (second compound 10 µM, first compound 0.3 µM): 15.3%
viability, T/C (second compound 10 µM, first compound 0.949 µM): 12.2%
viability, T/C (second compound 10 µM, first compound 3 µM): 7.26%
